In series [1] the test system is congo red-positive beta-amyloid plagues. As to the kind of experiment: Immunohistochemistry: congo red-positive beta-amyloid plaque count in hippocampus and cortex of transgenic mice. It is filed as in vivo. Conditions: for Reduction rate (%) of beta-amyloid plaques, cortex / Reduction rate (%) of beta-amyloid plaques, hippocampus / Total reduction rate (%) of beta-amyloid plaques: vs Tg group. The protocol: The transgenic mice were screened and drug was administered thereto as described in 1) and 2) of Experimental Example 4. The brain was separated from the transgenic mouse and fixed in 10% neutral formalin solution. A region of the brain including the hippocampus and the cortex were subjected to removal, washing, dehydration and paraffin infiltration to obtain paraffin block including the brain tissue. The paraffin block was subjected to thin section in thickness of 8 μm to obtain the sections of all regions of hippocampus. Among them, 10 sections were elected at regular intervals. They were deparaffinized, hydrated, immersed in Mayer's hematoxylin for 1 min and rinsed with tap water. The rinsed tissue was reacted in an alkaline sodium chloride solution for 20 min, after then was reacted in an alkaline congo red solution for 20 min. The resulting tissue was washed with 100% ethyl alcohol, cleared with xylene and mounted using a synthetic mounting medium. In the hippocampus and cortex regions of the tissue preparations strained with congo red, congo red-positive beta-amyloid plagues were counted.

Series [2] can be described thus: Pharmacokinetics test in rats (plasma). Type of series: in vivo, SD rats. Conditions: for BA: 2.5 mg/kg po vs 1.25 mg/kg iv; for AUC / Cmax / Tmax: SD, rat, plasma; for AUC: n = 3. As for the experimental part:
1) Test Animal and Administration of Test Compound
Three 7 week-old ICR mice (weight: about 30 g) and three 8 week-old SD rats (weight: about 250 g) were used per test group. A solution prepared by dissolving the compounds of Examples 9 and 17 in excipient (DMSO/Tween 20/saline: 0.1/0.6/2.3, v/v/v) were administered to each experimental animal. The test compound was orally administered in an amount of 10 mL per kg of body weight or intravenously administered in an amount of 5 mL per kg of body weight through the fine vein.
2) Blood Concentration Test
At 30 min, 1 hr, 2 hr, 4 hr, 10 hr and 24 hr after oral administration of the test compounds, the blood was collected from periorbital veins into the tube containing heparin (1000 IU/mL, 3 μl) for the mice, and from jugular vein for rats. The blood sample was centrifuged at 12,000 rpm for 2 min to obtain plasma. The obtained plasma was kept in freezer at −80° C. until the analysis.
The sample was analyzed using LC/MSMS system under the following condition:
The sample was pretreated as follows:
50 μL of plasma was placed in 2.0 mL of tube having a cap (Eppendorf Co.) and acidified by adding 20 μL of 0.1% formic acid thereto. An internal standard solution and 1 mL of ethyl acetate as an extract solvent were added to the resultant solution. The resultant solution was mixed using thermomixer (Eppendorf Co.) at 1400 rpm for 5 min, and then subjected to centrifuge (Eppendorf Co.). The supernatant was collected and concentrated at 35° C. using cyclone. The residue was re-dissolved in 50 μL of moblie phase and 5 μL of the resulting solution was injected into LC/MS and analyzed.
In Tables 8 and 9, “iv” refers to a intravenous injection; “po” refers to a per oral; “AUC plasma” refers to an area under the plasma level-time curve; “Cmax” refers to a maximum plasma concentration; “Tmax” refers to a time to reach Cmax, “BA” refers to a bioavailability (%) according to Equation 2 below; “AUC Brain” refers to a area under the brain tissue level-time curve; and “AUCBrain/AUCPlasma” refers to a passage rate of the test compound to the brain.
Bioavailability (%)=[(AUCpo/AUCiv)×(Doseiv/Dosepo)×100] Equation 2
wherein, AUCpo means an area under the blood concentration time curve (AUC) after the per oral administration, AUCiv means an AUC after the intravenous injection, Doseiv means an amount of the intravenous injection, and Dosepo means an amount of the per oral administration.

Series [3] relates to transgenic double tg mice (APPswe, PSEN1 dE9). Description: In vivo fear conditioning test in transgenic mice. The following applies: for Increase rate (fold) of freezing: 5 to 12 months of age, based on the freezing (%) of Tg vehicle group. As for the experimental part: The tails of 3-week old mice born from Male B6C3-Tg (APPswe, PSEN1 dE9, Jackson Laboratory Co., Maine, A) and female B6C3F1 (central Lab. Animal Inc., Korea) were cut in lengths of about 0.5 cm (tail biopsy). The genomic DNAs were extracted from the tail samples and subjected to a genotype analysis to screen transgenic double tg mice.
From 5 months to 12 months after the birth, the mice were administered orally with the compound of Example 9, in an amount of 30 mg/kg or 100 mg/kg every day. As a comparative compound, tramiprosate (Aisen, P. S. et. al., Curr. Alzheimer Res. 2007, 4, 473) was used, which binds to beta-amyloid protein to inhibit the deposition and cytotoxicity to the protein. The compounds were administrated.
3) Fear Conditioning Test
At the First day of training, the mice were placed in a conditioning box and adjusted for 2 min. The fear conditioning was performed with a conditional stimulus (CS) of 75 dB for 20 sec, together with an electrical stimulus (unconditional stimulus (US)) of 0.5 mA for final 2 sec in the conditional stimulus period. After 1 min, the animals were transferred to a cage. After 24 hrs, the retention test was performed. The animals were placed in the same conditioning box as used above and observed for 5 min. The freezing response was measured without CS and US. The freezing response is defined in the state of the animals keeping still except for breathing.

In a further series the target is beta-amyloid 42 (Homo sapiens, UniProt P05067). Description: Biochemical test: content of beta-amyloid 42 in hippocampus tissue of transgenic mice. The following applies: for Reduction rate (%) of beta amyloid 42 content: hippocampus tissue, based on the content of beta amyloid 42 in the Tg group. It is filed as in vivo.

A word on the AUC: it is concentration integrated over time. As a reminder, the Cmax is the maximum level reached in the sampled fluid or tissue. For orientation: Tmax means the time at which the peak concentration occurs. Broadly, the melting point is the temperature of the solid-liquid transition.

Chain of beta-amyloid 42 (P05067 672-713 limits assumed): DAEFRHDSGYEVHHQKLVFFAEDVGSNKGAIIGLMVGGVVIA

For the molecule `COc1ccc2cc(C=Cc3ccc(N(C)C)cc3)oc2c1` [Compound 9, 6-methoxy-2-(4-dimethylaminostyryl)benzofuran], the figures for the “Reduction rate (%) of beta-amyloid plaques, cortex” value in series [1] (30 mg/kg) and in series [1] (100 mg/kg) were 43% and 61%, respectively. Further, the “Reduction rate (%) of beta-amyloid plaques, hippocampus” value in series [1] (30 mg/kg) stood at 29%; in series [1] (100 mg/kg), 64%. Further, the “Total reduction rate (%) of beta-amyloid plaques” value came to 41% in series [1] (30 mg/kg) and 61% in series [1] (100 mg/kg). In series [1] (FIGS. 1 and 2), the “beta-amyloid deposition in stained hippocampus and cortex tissues compared with tramiprosate (in words)” value is listed as “remarkably reduced beta-amyloid deposition”. The “reduction rate of beta-amyloid deposition compared with tramiprosate (in words)” value in series [1] (Table 12, 30 and 100 mg/kg) was “remarkable reduction rate of beta-amyloid deposition in a dose-dependent manner”. The BA in series [2] was 27.8%. For the same molecule, the AUC turned out to be 1640 ng·h/mL in series [2] (1.25 mg/kg, iv) and 908 ng·h/mL in series [2] (2.5 mg/kg, po). In series [2] (2.5 mg/kg, po), this molecule returned a Cmax of 215 ng/mL. The Tmax in series [2] (2.5 mg/kg, po) was found to be 1.67 h. Moreover, the “Increase rate (fold) of freezing” value in series [3] (30 mg/kg orally every day) came to 3.2 fold; in series [3] (100 mg/kg orally every day), 3.8 fold. For the same molecule, the “degree of memory compared with tramiprosate (in words)” value in series [3] (30 and 100 mg/kg) is reported as “much higher degree of memory in a dose-dependent manner”. The results for the “Reduction rate (%) of beta amyloid 42 content” value at beta-amyloid 42 (30 mg/kg) and on beta-amyloid 42 (100 mg/kg) were 41% and 48%, respectively. Besides, the “reduction rate of beta-amyloid plague compared with tramiprosate (in words)” value at beta-amyloid 42 (Table 13, 30 and 100 mg/kg) is given as “remarkable reduction rate of beta-amyloid plague in a dose-dependent manner”.

Molecule `CNc1ccc(C=Cc2cc3cc(OC)ccc3o2)cc1` [Compound 17, 5-methoxy-2-(4-methylaminostyryl)benzofuran] registered a melting point of 174 to 175 °C. In series [2], the BA is 22.4%. In series [2] (1.25 mg/kg, iv), this molecule yielded an AUC of 1140 ng·h/mL. Also, in series [2] (2.5 mg/kg, po), the maximum concentration (Cmax) turned out to be 122 ng/mL, the Tmax amounted to 1.33 h and the AUC worked out at 516 ng·h/mL.

The values are drawn from US20110124888A1, “STYRYLBENZOFURAN DERIVATIVES AS INHIBITORS FOR BETA-AMYLOID FIBRIL FORMATION AND PREPARATION METHOD THEREOF” (Korea Institute of Science and Technology, priority 2008, published 2011).
